Reference: patent publication US4782081A, “Compounds and methods useful for the synthesis of thromboxane A2” (priority 1986, dated 1988)
Values joined by “and” are separate entries in the source; they are usually repeats but may differ in a detail not shown here. Equal entries are not always repeated. “Also recorded” adds a separate entry of the source. Structures can show the parent of a compound that is named as a salt.

How the values were obtained:
[1] = biological activity (biological properties of TXA2) in a variety of assays
Protocol: (§1) TXA2 S was also prepared by saponifiction of H2 (X=H) with Me3 SiOK (10) in tetrahydrofuran and isolated as an amorphous solid by solvent evaporation.

[2] = test system: platelets; assay: inhibition of TXA2 S induced platelet aggregation; assay type: cell-based, human
[3] = test system: human platelet rich plasma (PRP); assay: aggregation of human platelet rich plasma (PRP); assay type: cell-based
Source text: (§2) TXA2 S at concentrations of 16-100 nanograms/ml caused a concentration-dependent aggregation of human platelet rich plasma (PRP). Irreversible aggregation occurred with 50-100 nanograms TXA2 S/ml for all cases examined. […] These comparative potencies concur with published data. […] The aggregatory effects of TXA2 S were confined to platelets.

[4] = test system: human neutrophils; assay: aggregation of human neutrophils; assay type: cell-based
[5] = half-life in Krebs solution at 37° C. (bioassay on vascular tissue); assay type: physicochemical; settings: leading to TXB2
Protocol: Radioimmunoassay determinations of hydrolyzed TXA2 yielded values of 84±21, 60±16, 39±11, and 25±8 picograms TXB2 (mean±S.D at 95% confidence, n=3) which correspond with predicted values of 125, 62, 31, and 15 picograms, respectively. The half-life of TXA2 S at 37° C. in Krebs solution measured by bioassay on vascular tissue was 30 seconds which compares very closely with previously reported half-lives for biologically generated material. (1, 12)

[6] = test system: vascular tissue (rabbit aorta, pulmonary, mesenteric, celiac arteries and bovine coronary arteries); assay: contraction of Krebs superfused vascular tissue; assay type: cell-based; settings: for constriction of vascular tissue versus natural TXA2 / contraction of vascular tissue: rabbit aorta, pulmonary; for constriction of vascular tissue versus natural TXA2: mesenteric and celiac arteries; for contraction of vascular tissue: mesenteric, celiac arteries and bovine coronary arteries
Protocol: (§3) On most tissues 2-3 ng of TXA2 S was the threshold dose for contraction, generating more than 2 g of tension with rabbit aorta and 4 g of tension with bovine coronary arteries.

[7] = chemical stability and storage stability; assay type: physicochemical
Protocol: The salts of TXA2 were stable for more than one week when stored at -20 C. either as isolated solids or in basic methanol or tetrahydrofuran solution.
To a vile containing 1 mg (0.003 mmol) H1 in 0.050 ml (d4 -)methanol was immediately added 0.0025 ml of a 0.12M solution of NaOH(D) in (D)H2 O under nitrogen. […] Such solutions were diluted and used for biological testing and could be stored for at least a week at -20° C. without significant loss in biological activity.
as §1

[8] = test system: thromboxane synthetase or cyclooxygenase
[9] = test system: rabbit mesenteric arteries; assay: response of rabbit mesenteric arteries; assay type: cell-based
Protocol: as §3

[10] = test system: rabbit celiac arteries; assay: response of rabbit celiac arteries; assay type: cell-based
Protocol: as §3

[11] = indirect methods; refs (14), (15); listed as biologically generated material; cited from earlier work
[12] = 37° C., pH 7.4; refs (1,3); cited from earlier work
[13] = test system: vascular tissue (rabbit aorta, pulmonary, mesenteric, celiac arteries and bovine coronary arteries); settings: generated by platelets or a partially purified platelet enzyme; cited from earlier work
[14] = test system: leukotriene B4; assay: stimulation of leukotriene B4 formation; assay type: cell-based, human; settings: 2 ug/ml
[15] = in vitro; assay type: in vitro ADME; settings: human, plasma
Source text: as §2

[16] = test system: rabbit aorta; assay: contraction of Krebs superfused rabbit aorta; assay type: cell-based; settings: threshold dose 2-3 ng
Protocol: as §3

[17] = test system: bovine coronary arteries; assay: contraction of Krebs superfused bovine coronary arteries; assay type: cell-based; settings: threshold dose 2-3 ng
Protocol: as §3

[18] = test system: rabbit mesenteric arteries; settings: ref (19); cited from earlier work
[19] = test system: rabbit celiac arteries; settings: ref (19); cited from earlier work

SMILES: CCCCCC1C=CC2OC3CC(O3)C2CC=CCCCC(=O)O1 (stereo not drawn) [Compound H2, 1,15-Anhydro Thromboxane A2]
- biological activity [1]: did not show the biological properties of TXA2; also recorded: biologically inactive

SMILES: CCCCCCC=CC1C2CC(N=N2)C1CC=CCCCC(=O)O (stereo not drawn) [Compound U-51605, 9,11-diazo-prosta-5,13-dienoic acid]
- TXA2-induced aggregation ([2]; inhibitor at 1-3 ug/ml): inhibited TXA2 -induced aggregation in a concentration-dependent manner

SMILES: CCCCCCC=CC1C2CC(NO2)C1CC=CCCCC(=O)O (stereo not drawn) [Compound U-54701, 9,11-iminoepoxy-prosta-5,13-dienoic acid]
- platelet aggregation induced by TXA2 S ([2]; inhibitor at 5-15 ug/ml): no effect

SMILES: CCCCCC(O)C=CC1OC2CC(O2)C1CC=CCCCC(=O)O (stereo not drawn) [sodium salt of A, Thromboxane A2 Sodium]
- comparative potency in aggregating human platelets versus natural TXA2 [3]: indistinguishable from natural TXA2
- aggregation of neutrophils [4]: not neutrophils
- half-life in Krebs medium/solution [5]: 30 s
- constriction of vascular tissue versus natural TXA2 [6]: indistinguishable from natural TXA2
- storage without significant loss in biological activity ([7]; -20° C., methanol/water saponification solution): at least a week
- biological activity [1]: marked activity
- resistance to inhibition by selective thromboxane synthetase or cyclooxygenase inhibitors versus natural TXA2 [8]: indistinguishable from natural TXA2

SMILES: CCCCCC(O)C=CC1OC2CC(O2)C1CC=CCCCC(=O)O (stereo not drawn) [potassium salt of A, Thromboxane A2 Potassium]
- comparative potency in aggregating human platelets versus natural TXA2 [3]: indistinguishable from natural TXA2
- aggregation of neutrophils [4]: not neutrophils
- half-life in Krebs medium/solution [5]: 30 s
- constriction of vascular tissue versus natural TXA2 [6]: indistinguishable from natural TXA2
- resistance to inhibition by selective thromboxane synthetase or cyclooxygenase inhibitors versus natural TXA2 [8]: indistinguishable from natural TXA2

SMILES: CCCCC[C@H](O)/C=C/[C@H]1O[C@H]2C[C@H](O2)[C@@H]1C/C=C\CCCC(=O)O [TXA2, thromboxane A2]
- contraction of vascular tissue [6]: contracted all vascular tissue tested
- response of rabbit mesenteric arteries [9]: only constriction
- response of rabbit celiac arteries [10]: only constriction
- hydrolysis to TXB2 ([7]; aqueous high salt, neutral pH buffers): rapidly hydrolyzed to TXB2
- stability at high pH ([7]; high pH): appreciably enhanced at high pH
- half-life in plasma, biologically generated material [11]: 3 minutes and 5-6 minutes
- T1/2 in aqueous Krebs medium [12]: 32 s
- vascular contracting activity [13]: potent vaxcular contracting activity

SMILES: CCCCC[C@H](O)/C=C/[C@H]1O[C@H]2C[C@H](O2)[C@@H]1C/C=C\CCCC(=O)O [TXA2 S, Thromboxane A2]
- concentration causing concentration-dependent aggregation of human PRP [3]: 16-100 nanograms/ml
- potency relative to PGH2 at inducing aggregation of human PRP [3]: approximately 10 times
- concentration causing irreversible aggregation ([3]; all cases examined): 50-100 nanograms/ml
- aggregation of human neutrophils ([4]; 2 ug/ml): did not aggregate human neutrophils
- stimulation of formation of leukotriene B4 [14]: nor did it stimulate formation of leukotriene B4
- half-life [15]: 234 s
- half-life ([5]; krebs medium): 30 s
- potency versus biologically produced TXA2 ([6]; TXA2 calculated from PGH2 originally in the incubation, assuming 100% conversion): compared well with the activity of biologically produced TXA2
- contraction of vascular tissue [6]: contracted all vascular tissue tested
- tension generated, rabbit aorta [16]: more than 2 g
- tension generated, bovine coronary arteries [17]: > 4 g
- response of rabbit mesenteric arteries [9]: only constriction
- response of rabbit celiac arteries [10]: only constriction
- storage without significant loss in activity ([7]; -20° C., basic saponification solutions): up to a week
- stability in basic saponification solutions ([7]; basic saponification solutions): relatively stable
- stability in neutral or acidic solutions ([7]; neutral or acidic solutions): rapid decomposition
- biological activity [1]: did exhibit biological properties
- biological activity after hydrolysis ([1]; 0.1M phosphate buffer, pH 7.4): eliminated its biological activity

SMILES: CCCCC[C@H](O)/C=C/[C@@H]1[C@@H](C/C=C\CCCC(=O)O)[C@@H]2C[C@H]1OO2 [PGH2]
- response of rabbit mesenteric arteries to PGH2 [18]: small, short-lived contraction, followed by larger, longer lasting relaxation
- response of rabbit celiac arteries to PGH2 [19]: small, short-lived contraction, followed by larger, longer lasting relaxation

SMILES: CCCCCC(O)C=CC1OC2CC(O2)C1CC=CCCCC(=O)O (stereo not drawn) [free acid]
- stability of free acid in aprotic solvents ([7]; deuterochloroform, elimination to the enol ether): underwent elimination to the corresponding enol ether over the course of several hours

SMILES: CCCCC[C@H](O)/C=C/[C@H]1O[C@H]2C[C@H](O2)[C@@H]1C/C=C\CCCC(=O)O [A, Thromboxane A2]
- biological assays versus platelet-derived TXA2 [1]: indistinguishable from platelet-derived TXA2
